Where two headings read alike, the source gives them in different places.
Columns and labels:
CD40–CD154 (CD40L) [1] = target: T1, CD40–CD154 (CD40L) (Homo sapiens, UniProt P29965); experiment: cell-free ELISA-type binding inhibition assay, CD40–CD154; details: for selectivity toward CD40–CD154 against all other PPIs tested: vs OX40–OX40L, BAFFR–BAFF, TNF-R1–TNF-α
T1 construct: purchased Enzo Life Sciences
T1 sequence (P29965 116-261 limits assumed): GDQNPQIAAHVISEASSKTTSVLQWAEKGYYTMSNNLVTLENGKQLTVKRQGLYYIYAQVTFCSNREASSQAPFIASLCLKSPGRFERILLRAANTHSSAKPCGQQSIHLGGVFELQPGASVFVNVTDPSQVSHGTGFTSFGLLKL
Description: As a first assessment, the CD40–CD154 inhibitory activity of compounds 6–19 (Figure 2, Table 1) was quantified using a cell-free in vitro binding inhibition assay as described before. Data fitted with typical sigmoidal concentration dependence curves (log inhibitor versus response model in GraphPad Prism, Hill slope n = 1) are summarized in Figure 3A. […] Polymolecular conglomeration and/or aggregation is often a cause of promiscuous inhibition in screening assays. Therefore, just as in our previous work, we checked for this, and we confirmed for several compounds that inhibition due to aggregation is not the case by retesting inhibitory activity in the presence of a non-ionic detergent (Triton-X 100, 0.01%) as recommended for the detection of such effects.
(§1) Binding inhibition assays were performed in a 96-well cell-free format as described before. Briefly, microtiter plates (Nunc F Maxisorp, 96-well; Thermo Fisher Scientific, Waltham, MA, USA) were coated overnight at 4 °C with 100 μL/well of Fc-conjugated receptors diluted in PBS pH 7.2. This was followed by blocking with 200 μL/well of blocking solution (PBS pH 7.2, 0.05% Tween-20, 1% BSA) for 1 h at RT. Then, plates were washed twice using washing solution (PBS pH 7.4, 0.05% Tween-20) and tapped dry before the addition of the appropriate FLAG tagged ligands along with different concentrations of tested dyes diluted in binding buffer (100 mM HEPES, 0.005% BSA pH 7.2) to give a total volume of 100 μL/well. After 1 h incubation, three washes were conducted, and anti-FLAG HRP conjugate was used to detect the bound FLAG-tagged ligand. Plates were washed four times before the addition of 120 μL/well of HRP substrate TMB (3,3′,5,5′-tetramethylbenzidine) and kept in the dark for up to 15 min. The reaction was stopped using 30 μL of 1M H2SO4, and the absorbance value was read at 450 nm. The concentrations of receptors used were 0.3 μg/mL for CD40, TNF-R1, and BAFFR; 0.6 μg/mL for OX40. The concentrations of the ligands were fixed at 0.02 μg/mL for CD154 and TNF-α, 0.06 μg/mL for OX40L, and 0.03 μg/mL for BAFF. These values were selected following preliminary testing to optimize response (i.e., to produce a high-enough signal at conditions close to half-maximal response, EC50). […] To verify that inhibition is not due to colloidal aggregation, CD40 binding inhibition was also measured in the presence of the non-ionic detergent Triton-X 100 (0.01%), as recommended for the detection of such effects.
(§2) All binding inhibition and cell assays were tested in duplicate or triplicate per plates, and assays were performed as at least three independent experiments. As before, binding and cytotoxicity data were converted to percent inhibition and fitted with standard log inhibitor vs. normalized response models using nonlinear regression in GraphPad Prism (GraphPad, La Jolla, CA, USA) to establish half-maximal (median) inhibitory concentration (IC50) or median lethal concentration (LC50) values. Cell assay data were fitted with a similar model that also allowed for a variable slope using the log inhibitor vs. normalized response (variable slope) model from Prism with a Hill slope (n) shared across all compounds. Cell assays and draining lymph node data were analyzed by one-way repeated-measures analysis of variance (ANOVA) followed by Dunnett’s multiple comparison test as a post hoc test for individual differences using GraphPad Prism and a significance level of p < 0.05 for all comparisons.
(§3) Data are (counterclockwise) for human CD40–CD154 (CD40L) (A); OX40–OX40L (B); BAFFR–BAFF (C); and TNF-R1–TNFα (D) and were fitted with standard binding curves. Data are average ± SD (normalized to percent binding) for n = 3 independent experiments with duplicates for each condition.

BAFFR–BAFF = target: T2, BAFFR–BAFF (Homo sapiens, UniProt Q9Y275); experiment: cell-free ELISA-type binding inhibition assay, BAFFR–BAFF
T2 construct: purchased Enzo Life Sciences
Protocol: (§4) In parallel with the CD40–CD154 assay, the ability of these compounds to inhibit other TNFSFR–TNFSF PPIs, including OX40–OX40L, BAFFR–BAFF, and TNF-R1–TNF-α, was also assessed (Figure 3B–D).
as §1, §2, §3

OX40–OX40L = target: T3, OX40–OX40L (Homo sapiens, UniProt P23510); experiment: cell-free ELISA-type binding inhibition assay, OX40–OX40L
T3 construct: purchased Enzo Life Sciences
T3 sequence (P23510 51-183 limits assumed): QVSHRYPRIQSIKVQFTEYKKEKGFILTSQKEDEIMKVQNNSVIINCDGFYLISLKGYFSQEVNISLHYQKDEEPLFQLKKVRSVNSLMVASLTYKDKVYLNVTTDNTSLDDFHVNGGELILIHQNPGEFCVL
Protocol: as §4, §1, §2, §3

[2] = test system: CD154-induced NF-κB activation in CD40 sensor cells; experiment: CD40 sensor cell assay (HEK Blue CD40, SEAP reporter); type: cell-based, human
Description: (§5) As further confirmation of the inhibitory activity of our compounds, a cell-based assay was used with sensor cells (HEK Blue CD40) containing a secreted embryonic alkaline phosphatase (SEAP) reporter gene under the control of a promoter fused to a NF-κB binding site and transfected with CD40. […] For all tested compounds, the corresponding IC50 values are higher than those determined in the cell-free binding inhibition assay (Table 1) representing a loss of activity which is likely due to non-specific binding on account of the presence of proteins and cells in the assay, as well as hydrophobicity-related problems. Cytotoxicities were also evaluated in these same cells and at the same concentrations using a standard MTS assay to ensure that effects are present at non-toxic concentration levels.
CD40 expressing NF-κB sensor cells (HEK Blue, InvivoGen, San Diego, CA, USA) were used to assess the ability of the present compounds to block CD154-induced activation as described before. Briefly, cells were maintained in DMEM at 80% confluence for each experiment. Cells were trypsinized and re-suspended in the same medium without FBS and seeded on 96-well microtiter plates at a density of 50,000 cells/well in the absence and presence of various concentrations of compounds diluted in the same media. For ligand mediated stimulation, a concentration of recombinant human CD154 (100 ng/mL) found to induce an optimal response was maintained in the wells for this purpose. After 24 h of incubation at 37 °C, 40 μL supernatant of each well were taken and added to another 96-well microtiter plate containing 160 μL/well of QUANTI-Blue (InvivoGen). The level of SEAP was determined after 1 h of incubation at 37 °C by reading at 650 nm using a spectrophotometer. A monoclonal anti-human CD154 antibody (clone 40804, R&D Systems, Minneapolis, MN, USA) was used as a positive control at 240 nM concentration.
as §2
Figure 5 Inhibition of CD154-induced NF-κB activation in CD40 sensor cells by compounds 6, 14, 15, and 18 in a concentration-dependent manner. Tartrazine (TZ) and an anti-CD154 antibody (mAb; single dose, 240 nM) were included as negative and positive controls, respectively. Data are average ± SD (normalized to CD154-activated cells alone) for n = 2 independent experiments with duplicates for each condition.

[3] = solubilization in the in vivo dosing vehicle; type: physicochemical; details: vehicle 20% HPβCD
TNF-R1–TNFα = target: T4, TNF-R1–TNFα (Homo sapiens, UniProt P01375); experiment: cell-free ELISA-type binding inhibition assay, TNF-R1–TNFα; details: cell-free TNF-R1–TNFα binding inhibition; read-out: TNF IC50
T4 construct: purchased Enzo Life Sciences
T4 sequence (P01375 85-233 limits assumed): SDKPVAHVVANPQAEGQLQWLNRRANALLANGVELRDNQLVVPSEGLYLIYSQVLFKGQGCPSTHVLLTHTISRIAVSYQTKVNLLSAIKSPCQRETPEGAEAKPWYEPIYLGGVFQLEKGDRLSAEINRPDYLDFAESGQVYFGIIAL
Protocol: as §4, §1, §2, §3

HEK Blue cells = experiment: MTS cytotoxicity assay in HEK Blue cells; type: cell-based; details: LC50 (MTS) / NF-κB IC50 in sensor cells
Description: as §5
(§6) For the MTS assay, HEK Blue cells were cultured and prepared in the same manner as in the CD40 sensor assay. Then cells were added to a 96-well microtiter plate at a density of 50,000 cells/well in the absence or presence of various concentrations of compounds diluted in the same media, without the addition of CD154. The plate was incubated at 37 °C for 24 h. 20 µL per well of MTS, 3-(4,5-dimethylthiazol-2-yl)-5-(3-carboxymethoxyphenyl)-2-(4-sulfophenyl)-2H-tetrazolium, (Promega, Madison, WI, USA) was added to the culture after treatments, and cells were incubated at 37 °C for 4 h. Formazan levels were measured using a plate reader at 490 nm.
as §2

[4] = MTS cytotoxicity assay in HEK Blue cells; type: cell-based; details: human, HEK Blue CD40 sensor cells; HEK Blue cells, 24 h; read-out: LC50 (cytotoxicity, MTS)
Description: as §5, §6, §2

CD40 = target: T5, CD40 (Homo sapiens, UniProt P25942); experiment: protein thermal shift (differential scanning fluorimetry), CD40; type: binding; details: 25 μM of 11, 10 μM of DRI-C21045; CD40-Fc 0.1 mg/mL
T5 construct: purchased Enzo Life Sciences
T5 sequence (P25942 21-277): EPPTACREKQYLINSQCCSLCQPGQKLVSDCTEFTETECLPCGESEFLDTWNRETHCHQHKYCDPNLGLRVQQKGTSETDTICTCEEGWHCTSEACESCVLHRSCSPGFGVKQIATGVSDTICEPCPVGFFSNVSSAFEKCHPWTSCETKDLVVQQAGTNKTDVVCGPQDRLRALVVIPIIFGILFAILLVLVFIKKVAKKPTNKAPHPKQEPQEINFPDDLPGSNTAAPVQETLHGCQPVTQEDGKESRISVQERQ
Description: (§7) A protein thermal shift assay (differential scanning fluorimetry, also known as ThermoFluor assay) was used to establish whether our small-molecule probes bind to CD40 or CD154 (CD40L). This technique quantifies the shift in protein stability due to ligand binding via use of a dye whose fluorescence increases when exposed to hydrophobic surfaces, which happens as the protein unfolds exposing its normally buried hydrophobic core residues. […]
(§8) This assay was used following standard protocols as described in the literature to establish whether CD154 or CD40 is the binding partner of our compounds. Sypro orange (ThermoFisher; Waltham, MA, USA) was used as the fluorescence detection dye with an RT-PCR machine (StepOnePlus, Applied Biosystems (Foster City, CA, USA); detection on ROX channel, 575/602 nm) programmed to equilibrate samples at 25 °C for 90 s and then increase temperature to 99 °C by 0.4 °C every 24 s before taking a reading. Melting point of the protein is considered the lowest point of the first derivative plot, as calculated by the software included with the RT-PCR machine. Optimal concentrations were determined by performing a series of preliminary scans at various concentrations of protein, compound, and dye (CD154 0.05 mg/mL, CD40-Fc 0.1 mg/mL, Sypro orange 4×, 100 mM HEPES buffer, 10 μM of DRI-C21045 and 25 μM of 11). […]

CD154 (CD40L) = target: T6, CD154 (CD40L) (Homo sapiens, UniProt P29965); experiment: protein thermal shift (differential scanning fluorimetry), CD154; type: binding; details: 25 μM of 11, 10 μM of DRI-C21045; CD154 0.05 mg/mL
T6 construct: purchased Peprotech
T6 sequence (P29965 113-261 limits assumed): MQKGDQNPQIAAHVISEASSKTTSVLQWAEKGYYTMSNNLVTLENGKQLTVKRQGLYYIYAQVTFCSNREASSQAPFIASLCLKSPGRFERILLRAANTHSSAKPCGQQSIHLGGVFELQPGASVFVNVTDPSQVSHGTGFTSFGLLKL
Description: as §7, §8

CD40–CD154 (CD40L) [5] = target: T1, CD40–CD154 (CD40L); parameters: method as in PMID 29024591; details: read-out: CD40–CD154 IC50 (previous work); cited from earlier work
[6] = cell-free CD40–CD154 binding inhibition, read-out: CD40 IC50

IC50 (CD40–CD154 (CD40L) [1]; cell-free binding inhibition assay, read-out: CD40–CD154 IC50)	shift in melting temperature (Tm) of CD40 (CD40)	shift in melting temperature (Tm) of CD154 (CD154 (CD40L))	Structure (SMILES)	IC50 (CD40–CD154 (CD40L) [1]; [6])	selectivity toward CD40–CD154 against all other PPIs tested (CD40–CD154 (CD40L) [1])	selectivity toward CD40–CD154 against all other PPIs tested (CD40–CD154 (CD40L) [1]; listed as DRI-C21091)	IC50 (BAFFR–BAFF)	IC50 (OX40–OX40L)	inhibition of CD154-induced NF-κB activation (qualitative) [2]	IC50 ([2]; Homo sapiens, CD154 100 ng/mL, 24 h)	solubility in the vehicle for in vivo dosing [3]	IC50 (TNF-R1–TNFα)	therapeutic index, TI = LC50/IC50 (HEK Blue cells)	CC50 at 24 h [4]	IC50 (CD40–CD154 (CD40L) [5])
			O=C(Nc1ccc(-c2ccc(C(=O)Nc3cccc4cccc(S(=O)(=O)O)c34)cc2)cc1)c1ccc(-c2ccc([N+](=O)[O-])cc2)cc1 [Compound 14, 8-(4′-(4′-Nitro-[1,1′-biphenyl]-4-carboxamido)-[1,1′-biphenyl]-4-carboxamido)naphthalene-1-sulfonic acid]	0.02 µM	> 30 fold	more than thirty-fold	0.784 µM	6.88 µM	concentration-dependent inhibition	11.1 µM	could not be sufficiently solubilized in the vehicle	70.3 µM	5	55.6 µM	
60 µM	not for CD40	caused clear shifts	COC(=O)c1ccc(C(=O)Nc2ccc(-c3ccc(C(=O)Nc4ccc(S(=O)(=O)O)c5cccc(S(=O)(=O)O)c45)cc3)cc2)cc1 [Compound 11, 4-(4′-(4-(Methoxycarbonyl)benzamido)-[1,1′-biphenyl]-4-carboxamido)naphthalene-1,5-disulfonic acid]	60.1 µM			540 µM	120 µM				456 µM			
	not for CD40	caused clear shifts	COC(=O)c1ccc(C(=O)Nc2ccc(-c3ccc(C(=O)Nc4cccc5cccc(S(=O)(=O)O)c45)cc3)cc2)cc1 [DRI-C21045, reference compound]												0.17 µM

Source: article PMC5978685, “Design, Synthesis, and Evaluation of Novel Immunomodulatory Small Molecules Targeting the CD40–CD154 Costimulatory Protein-Protein Interaction” (Molecules : A Journal of Synthetic Chemistry and Natural …, 2018)
